Each compound was assayed against PDE-5 (UniProt O76074) (assay: In vitro PDE inhibitory activity against PDE5 (batch method or scintillation proximity assay)). Settings: representative compounds.
Type: biochemical, human
From the text: The compounds of the invention are inhibitors of cyclic guanylate monophosphate (cGMP)-specific phosphodiesterase type 5 (PDE-5 inhibitors).
The required PDE enzymes can be isolated from a variety of sources, including human corpus cavernosum, human and rabbit platelets, human cardiac ventricle, human skeletal muscle and bovine retina, essentially by a modification of the method of Thompson, W J et al.; Biochemistry 18(23), 5228-5237, 1979, as described by Ballard S A et al.; J. Urology 159(6), 2164-2171, 1998. In particular, cGMP-specific PDE5 and cGMP-inhibited cAMP PDE3 can be obtained from human corpus cavernosum tissue, human platelets or rabbit platelets; cGMP-stimulated PDE2 was obtained from human corpus cavernosum; calcium/calmodulin (Ca/CAM)-dependent PDE1 from human cardiac ventricle; cAMP-specific PDE4 from human skeletal muscle; and photoreceptor PDE6 from bovine retina. Phosphodiesterases 7-11 can be generated from full length human recombinant clones transfected into SF9 cells.
Assays can be performed either using a modification of the “batch”method of Thompson W J and Appleman M M; Biochemistry 10(2), 311-316, 1971, essentially as described by Ballard S A et al.; J. Urology 159(6), 2164-2171, 1998, or using a scintillation proximity assay for the direct detection of [^3H]-labelled AMP/GMP using a modification of the protocol described by Amersham plc under product code TRKQ7090/7100. In summary, for the scintillation proximity assay the effect of PDE inhibitors was investigated by assaying a fixed amount of enzyme in the presence of varying inhibitor concentrations and low substrate, (cGMP or cAMP in a 3:1 ratio unlabelled to [^3H]-labeled at a concentration of ˜⅓ Km, or less) such that IC50≅Ki. The final assay volume was made up to 100 μl with assay buffer [20 mM Tris-HCl pH 7.4, 5 mM MgCl2, 1 mg/ml bovine serum albumin]. Reactions were initiated with enzyme, incubated for 30-60 min at 30° C. to give <30% substrate turnover and terminated with 50 μl yttrium silicate SPA beads (containing 3 mM of the respective unlabelled cyclic nucleotide for PDEs 9 and 11).

Row | Structure (SMILES) | IC50 [nM]
1 | CCN(C)c1nc(Nc2cc(C)ccn2)c2c(n1)c(C(=O)O)nn2CC1CCCCO1 (stereo not shown) [Example 60] | 8.02
2 | CCOCCn1nc(C(=O)O)c2nc(N(C)C(C)C)nc(NC3CC3)c21 [Example 34] | 100
3 | CCOCCn1nc(C(=O)O)c2nc(N(C)C)nc(NC3CC3)c21 [Example 35] | 100
4 | CCOCCn1nc(C(=O)O)c2nc(N(C)C)nc(NC3CCC3)c21 [Example 33] | 100
5 | COC(C)CCn1nc(C(=O)O)c2nc(N(C)C(C)C)nc(Nc3cc(C)ccn3)c21 (stereo not shown) [Example 107] | 0.307

Same assay, conditions: representative compounds, read-out: IC50

Row | Structure (SMILES) | IC50 [nM]
6 | CCOCCn1nc(C(=O)OC)c2nc(N3CCN[C@H](C)C3)nc(Nc3cc(C)ccn3)c21 [Example 3] | 5.01
7 | Cc1cccc(Nc2nc(N(C)C(C)C)nc3c(C(=O)O)nn(CCOCC(F)(F)F)c23)c1 [Example 138] | 0.065
8 | CCOCCn1nc(C(=O)O)c2nc(N(C)C(C)C)nc(Nc3cc(C)ccn3)c21 [Example 110, 1-(2-Ethoxyethyl)-5-(N-isopropyl-N-methylamino)-7-(4-methylpyridin-2-ylamino)-1H-pyrazolo[4,3-d]pyrimidine-3-carboxylic acid] | 0.564
9 | CCOCCn1nc(C(=O)O)c2nc(N(C)C)nc(Nc3ccc(C)cn3)c21 [Example 24] | 53.9
10 | CCOCCn1nc(C(=O)O)c2nc(N(C)CC)nc(Nc3ccc(F)c(C)c3)c21 [Example 87] | 0.087
11 | CCN(C)c1nc(Nc2cc(C)ccn2)c2c(n1)c(C(=O)NS(C)(=O)=O)nn2CCO [Example 185, 5-[Ethyl(methyl)amino]-1-(2-hydroxyethyl)-7-[(4-methylpyridin-2-yl)amino]-N-(methylsulfonyl)-1H-pyrazolo[4,3-d]pyrimidine-3-carboxamide] | 11.5
12 | CCN(C)c1nc(Nc2cc(C)ccn2)c2c(n1)c(C(=O)O)nn2C[C@@H](C)OC [Example 65] | 25
13 | CCOCCn1nc(C(=O)OC)c2nc(N(C)C(C)C)nc(Nc3cc(C)ccn3)c21 [Example 1, Methyl 1-(2-ethoxyethyl)-5-(N-isopropyl-N-methylamino)-7-(4-methylpyridin-2-ylamino)-1H-pyrazolo[4,3-d]pyrimidine-3-carboxylate] | 0.075
14 | CCN(C)c1nc(Nc2ccc(F)c(C)c2)c2c(n1)c(C(=O)O)nn2CCOCC(F)(F)F [Example 137] | 0.068
15 | CCOCCn1nc(-c2nc(=O)o[nH]2)c2nc(N(C)CC)nc(Nc3ccc(F)c(C)c3)c21 [Example 77] | 0.162
16 | Cc1ccnc(Nc2nc(N(C)C(C)C)nc3c(C(=O)NS(C)(=O)=O)nn(CCOCC(F)(F)F)c23)c1 [Example 179, 5-[Isopropyl(methyl)amino]-7-[(4-methylpyridin-2-yl)amino]-N-(methylsulfonyl)-1-[2-(2,2,2-trifluoroethoxy)ethyl]-1H-pyrazolo[4,3-d]pyrimidine-3-carboxamide] | 0.914
17 | CCOCCn1nc(C(=O)O)c2nc(N(C)C(C)C)nc(Nc3cccc(F)c3)c21 [Example 88] | 21.3
18 | Cc1ccnc(Nc2nc(N(C)C(C)C)nc3c(C(=O)O)nn(CCOCC(F)(F)F)c23)c1 [Example 126, 5-[Isopropyl(methyl)amino]-7-[(4-methylpyridin-2-yl)amino]-1-[2-(2,2,2-trifluoroethoxy)ethyl]-1H-pyrazolo[4,3-d]pyrimidine-3-carboxylic acid] | 3.05
19 | CCOCCn1nc(C(=O)O)c2nc(N(C)C(C)C)nc(Nc3cc(C)ncn3)c21 [Example 123] | 0.628
20 | CCOCCn1nc(C(=O)O)c2nc(N(C)C)nc(Nc3cc(CC)ccn3)c21 [Example 37] | 23.9
21 | CCOCCn1nc(C(=O)O)c2nc(N(C)C(C)C)nc(Nc3ccnc(C)n3)c21 [Example 72] | 59.2
22 | CCOCCn1nc(C(=O)O)c2nc(N(C)C(C)C)nc(Nc3cc(C)cc(C)n3)c21 [Example 26] | 1.64
23 | CCOCCn1nc(C(=O)OCC)c2nc(N(C)CC)nc(Nc3cc(C)ccn3)c21 [Example 7, Ethyl 1-(2-ethoxyethyl)-5-(N-ethyl-N-methylamino)-7-(4-methylpyridin-2-ylamino)-1H pyrazolo[4,3-d]pyrimidine-3-carboxylate] | 0.082
24 | CCOCCn1nc(C(=O)OC)c2nc(N3C[C@@H]4C[C@H]3CN4)nc(Nc3cc(C)ccn3)c21 [Example 4] | 2.62
25 | CCOCCn1nc(C(=O)O)c2nc(N(CC)CC)nc(Nc3ccc(F)c(C)c3)c21 [Example 86] | 0.063
26 | CCOCCn1nc(C(=O)O)c2nc(N(C)C)nc(Nc3ccc(C)c(C)c3)c21 [Example 102] | 38.2
27 | CCOCCn1nc(C(=O)O)c2nc(N(C)C(C)C)nc(Nc3cnccn3)c21 [Example 29] | 106
28 | CCN(C)c1nc(Nc2cc(C)ccn2)c2c(n1)c(C(=O)NS(C)(=O)=O)nn2CCOCCCF [Example 175] | 0.57

— patent publication US7572799B2, “Pyrazolo[4,3-d]pyrimidines as Phosphodiesterase Inhibitors” (Pfizer Inc, priority 2003, dated 2009)
